Patent US8343961B2, “Substituted heterocyclic compounds” (ArQule, Inc., priority 2009, dated 2013)

What was measured:
Tec kinase = biological target: T1, Tec kinase (Homo sapiens, UniProt P42680); assay: Tec Kinase Activity Assay; type: biochemical; details: read-out: Tec % INH, at 30 uM
T1 sequence (P42680 1-631): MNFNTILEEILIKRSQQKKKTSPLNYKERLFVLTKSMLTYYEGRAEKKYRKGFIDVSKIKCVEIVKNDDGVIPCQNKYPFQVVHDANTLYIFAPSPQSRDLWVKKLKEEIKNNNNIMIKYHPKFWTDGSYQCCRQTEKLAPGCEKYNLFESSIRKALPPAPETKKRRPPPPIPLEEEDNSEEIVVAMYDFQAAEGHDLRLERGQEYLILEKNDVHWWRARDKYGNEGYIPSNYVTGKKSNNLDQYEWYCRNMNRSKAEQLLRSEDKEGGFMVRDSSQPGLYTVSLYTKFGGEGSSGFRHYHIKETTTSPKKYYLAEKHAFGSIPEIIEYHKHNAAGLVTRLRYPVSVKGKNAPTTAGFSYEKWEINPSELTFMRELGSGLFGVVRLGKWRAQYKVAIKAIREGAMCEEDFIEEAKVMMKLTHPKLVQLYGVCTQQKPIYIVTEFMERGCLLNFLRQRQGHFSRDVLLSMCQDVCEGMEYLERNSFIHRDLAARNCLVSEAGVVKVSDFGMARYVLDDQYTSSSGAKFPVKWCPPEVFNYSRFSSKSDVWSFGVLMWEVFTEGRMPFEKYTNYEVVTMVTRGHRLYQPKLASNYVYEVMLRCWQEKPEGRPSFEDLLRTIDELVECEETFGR
Description: (§1) The disclosed compounds were assayed for their ability to inhibit the activity of Tec kinase. Nunc Maxisorb plates were coated with streptavidin by overnight incubation with 100 μL per well of 1 μg/mL Streptavidin in DPBS. Prior to the start of the experiment, the plates were washed with TBST (3×200 μL) and blocked for at least 1 hour by adding 150 μL of 5% BSA/TBST. The plates were washed with TBST (3×200 μL/well) and left dry immediately before the capture step.
The test articles and controls (Staurosporine and Sutent) were prepared using the following assay buffer @ 3× desired final concentration (50 mM Tris-HCl, 0.02 mg/mL BSA, 10 mM MgCl2, 0.1 mM Na3VO4, 1 mM EGTA, 75 μM ATP0.01% NP-40, 2 mM DTT in 10% glycerol/water). In a reaction plate were added rapidly 20 μL test article (or control) and 20 μL TEC 0.25 ng/4. The plate was incubated for 30 minutes. To the reaction plate was added 20 μL of Pyk-2.5 ng/μL. The plate was incubated at room temperature for two hours. From the reaction plate, 50 μL was transferred to the streptavidin coated plate. The capture plate was incubated at room temperature for 30 minutes then washed 6× with TBST. To the capture plate was added 100 μL/well of Cell Signaling anti-phospho tyrosine at a dilution of 1:3000 in 2% BSA/TBST. The plate was incubated for one hour at room temperature then washed 6× with TBST. To the capture plate was added 100 μL/well of Alkaline Phosphatase Tagged Goat anti Mouse Antibody at a dilution of 1:4000 in 2% BSA/TBST. The plate was incubated for one hour at room temperature then washed 6× with TBST. The fluorescent readout was initiated by the addition of 100 μL/well of Attophos reagent (6 mg/10 mL). The reading was done on the Perkin Elmer Envision system.

RET kinase = RET kinase (Homo sapiens, UniProt P07949); assay: RET Kinase Activity Assay; type: biochemical; details: read-out: Ret, % INH, at 30 uM
Sequence of RET kinase (P07949 29-1114): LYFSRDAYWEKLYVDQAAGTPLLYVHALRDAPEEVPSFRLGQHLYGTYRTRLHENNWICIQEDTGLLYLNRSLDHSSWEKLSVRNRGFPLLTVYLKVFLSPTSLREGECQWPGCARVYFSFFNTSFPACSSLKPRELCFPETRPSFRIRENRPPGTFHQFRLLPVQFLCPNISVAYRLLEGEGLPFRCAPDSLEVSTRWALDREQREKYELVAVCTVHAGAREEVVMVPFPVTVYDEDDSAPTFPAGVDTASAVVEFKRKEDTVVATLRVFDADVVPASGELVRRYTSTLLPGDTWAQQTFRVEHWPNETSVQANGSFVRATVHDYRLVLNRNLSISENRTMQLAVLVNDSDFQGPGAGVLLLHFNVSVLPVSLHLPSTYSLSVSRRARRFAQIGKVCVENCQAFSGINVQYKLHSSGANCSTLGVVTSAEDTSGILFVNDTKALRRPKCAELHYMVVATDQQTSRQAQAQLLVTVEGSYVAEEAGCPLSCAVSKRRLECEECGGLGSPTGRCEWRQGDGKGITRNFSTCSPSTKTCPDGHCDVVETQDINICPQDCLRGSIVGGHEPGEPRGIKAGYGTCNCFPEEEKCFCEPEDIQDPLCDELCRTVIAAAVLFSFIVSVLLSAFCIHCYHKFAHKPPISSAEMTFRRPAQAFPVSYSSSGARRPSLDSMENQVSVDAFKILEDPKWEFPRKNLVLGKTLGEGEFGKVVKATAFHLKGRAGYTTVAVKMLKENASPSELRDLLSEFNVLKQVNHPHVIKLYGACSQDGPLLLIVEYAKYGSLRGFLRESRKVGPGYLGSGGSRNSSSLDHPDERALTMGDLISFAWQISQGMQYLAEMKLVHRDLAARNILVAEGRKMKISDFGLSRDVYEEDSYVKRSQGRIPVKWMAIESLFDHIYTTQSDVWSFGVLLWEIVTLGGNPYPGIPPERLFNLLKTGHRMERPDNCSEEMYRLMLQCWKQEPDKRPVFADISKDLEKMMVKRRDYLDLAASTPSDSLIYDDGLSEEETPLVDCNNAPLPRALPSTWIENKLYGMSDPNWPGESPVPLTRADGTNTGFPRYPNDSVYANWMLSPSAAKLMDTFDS
Description: as §1, with “RET” for “Tec”, “Maxwasorb” for “Maxisorb”, “[…])” for “μL/well)”
The test articles and controls (Staurosporine and Sutent) were prepared using the following assay buffer @ 3× desired final concentration (50 mM […], 0.02 mg/mL BSA, 10 mM MgCl2, 0.1 mM Na3VO4, 1 mM EGTA, 75 μM ATP0.01% NP-40, 2 mM DTT in 10% glycerol/water). In a reaction plate, were added rapidly 20 μL test article (or control) and 20 μL RET (0.25 ng/4 final concentration). The plate was incubated for 15 minutes. To the reaction plate was added 20 μL of Pyk-2 (0.25 ng/4 final concentration). The plate was incubated at room temperature for one hour.
From the reaction plate, 50 μL was transferred to the streptavidin coated plate. The capture plate was incubated at room temperature for 30 minutes then washed 6× with TBST. To the capture plate was added 100 μL/well of Cell Signaling anti-phospho tyrosine at a dilution of 1:3000 in 2% BSA/TBST. The plate was incubated for one hour at room temperature then washed 6× with TBST. To the capture plate was added 100 μL/well of Alkaline Phosphatase Tagged Goat anti Mouse Antibody at a dilution of 1:4000 in 2% BSA/TBST. The plate was incubated for one hour at room temperature then washed 6× with TBST. The fluorescent readout was initiated by the addition of 100 μL/well of Attophos reagent (6 mg/10 mL). The reading was done on the Perkin Elmer Envision system.

Row | inhibition at 30 µM (Tec kinase) [%] | inhibition at 30 µM (RET kinase) [%] | SMILES
1 | < 50 | < 50 | COc1cc2c(cc1OC)C(c1ccccc1Cl)N(c1nc(N)nc3[nH]cnc13)CC2 (stereo not shown) [Compound 48, 6-[1-(2-chlorophenyl)-6,7-dimethoxy-3,4-dihydroisoquinolin-2(1H)-yl]-9H-purin-2-amine]
2 | < 50 | < 50 | COc1cc2c(cc1OC)C(c1cccc(C(F)(F)F)c1)N(c1nc(N)nc3[nH]cnc13)CC2 (stereo not shown) [Compound 50, 6-{6,7-dimethoxy-1-[3-(trifluoromethyl)phenyl]-3,4-dihydroisoquinolin-2(1H)-yl}-9H-purin-2-amine]
